Laboratory results published in US12252714B2, “Halogenation of complex organic compounds” (REGENTS OF THE UNIVERSITY OF MICHIGAN, priority 2018, dated 2025).

Assays:
MalA = molecular target: T1, MalA (Malbranchea aurantiaca, UniProt L0E155); assay: Michaelis-Menten kinetics of MalA chlorination reactions; type: biochemical
T1 construct: The malA coding region was amplified from the cDNA template by PCR; made in house; host or cells: E. coli BL21 (DE3) with pGro7 (GroEL/GroES) chaperone plasmid
Experimental: Substrates malbrancheamide B (compound 3) and isomalbrancheamide B (compound 4) to product malbrancheamide (compound 1). Reactions were set up in a total volume of 250 μL with the following components: 1.1 μM MalA, 44 μM HpaC flavin reductase, 100 μM FAD, 50 mM NaCl, 3.6 mM NADH, and a variety of substrate concentrations ranging from 1 μM to 60 μM. Reactions were quenched with methanol by removing 50 μL at each time point (2, 5, 10, 15 minutes). Reactions were analyzed on a Schimadzu HPLC with the following LC time program: 40% acetonitrile for 1 minute, gradient over 6 minutes from 40-85% acetonitrile, 85% acetonitrile for 1 minute, gradient over 1 minute to 40% acetonitrile, re-equilibration to 40% acetonitrile for 3 minutes. The absorbance was measured at 240 nm and the mobile phase consisted of water and acetonitrile. A Phenomenex Lux cellulose-3, cellulose Tris (4-methylbenzoate) 250×4.6 mm column was used for separation. GraphPad Prism (Version 6.01) software was used to plot the initial velocities against the substrate concentration and to determine the kinetic constants kcat and Km.
Substrate premalbrancheamide (compound 2) to products isomalbrancheamide B (compound 4) and malbrancheamide B (compound 3). Reactions were set up in a total volume of 250 μL with the following components: 1.8 μM MalA, 44 μM HpaC, 100 μM FAD, 50 mM NaCl, 3.6 mM NADH, and a variety of substrate concentrations ranging from 5 μM to 80 μM. Reactions were quenched with 100 μL methanol by removing 50 μL at each time point (2, 5, 7, 10 minutes). Reactions were analyzed on a Schimadzu HPLC with the following LC time program: 34% acetonitrile for 1 minute, gradient over 11 minutes to 62% acetonitrile, 62% acetonitrile for 30 seconds, gradient over 30 seconds to 34% acetonitrile, re-equilibration to 34% for 3 minutes. The absorbance was measured at 240 nm and the mobile phase consisted of water and acetonitrile. A Phenomenex Lux cellulose-3 Tris (4-methylbenzoate) 250×4.6 mm column was used for separation.
Michaelis-Menten kinetic parameters were determined for the natural chlorination reactions of MalA. […] These catalytic efficiencies are fairly high compared to those of the eukaryotic FDH Rdc2, which are 2.93 min−1 mM−1 for the initial chlorination reaction and 0.11 min−1 mM−1 for the second chlorination reaction.^4

MalA′ = assay: Co-crystallization with MalA′; type: binding, Malbranchea graminicola
Experimental: Crystallization conditions. […] The purified MalA′ was dialyzed overnight into a 20 mM HEPES pH 7 buffer with 200 mM NaCl or 300 mM NaCl to remove glycerol, and then supplemented with an equimolar quantity of FAD. […] For active site complexes with compounds 2, 3, and 4, MalA′ was pre-incubated with a four-fold molar excess of substrate. Crystals were grown by vapor diffusion from 1:2 mixtures of 5 mg/mL MalA′ pre-incubated with compound 2, 3 or 4 and a well solution containing 2 M (NH4)2SO4, 0.2 M Li2SO4, 5 mM CdCl2, and 0.1 M Bis-Tris pH 5.5. Crystals were cryoprotected in well solution augmented with 10% glycerol and flash-cooled in liquid nitrogen.

[1] = chlorination, compound 2 to compound 3
[2] = chlorination, compound 2 to compound 4
[3] = second chlorination, to compound 1

T1 sequence (L0E155 whole entry): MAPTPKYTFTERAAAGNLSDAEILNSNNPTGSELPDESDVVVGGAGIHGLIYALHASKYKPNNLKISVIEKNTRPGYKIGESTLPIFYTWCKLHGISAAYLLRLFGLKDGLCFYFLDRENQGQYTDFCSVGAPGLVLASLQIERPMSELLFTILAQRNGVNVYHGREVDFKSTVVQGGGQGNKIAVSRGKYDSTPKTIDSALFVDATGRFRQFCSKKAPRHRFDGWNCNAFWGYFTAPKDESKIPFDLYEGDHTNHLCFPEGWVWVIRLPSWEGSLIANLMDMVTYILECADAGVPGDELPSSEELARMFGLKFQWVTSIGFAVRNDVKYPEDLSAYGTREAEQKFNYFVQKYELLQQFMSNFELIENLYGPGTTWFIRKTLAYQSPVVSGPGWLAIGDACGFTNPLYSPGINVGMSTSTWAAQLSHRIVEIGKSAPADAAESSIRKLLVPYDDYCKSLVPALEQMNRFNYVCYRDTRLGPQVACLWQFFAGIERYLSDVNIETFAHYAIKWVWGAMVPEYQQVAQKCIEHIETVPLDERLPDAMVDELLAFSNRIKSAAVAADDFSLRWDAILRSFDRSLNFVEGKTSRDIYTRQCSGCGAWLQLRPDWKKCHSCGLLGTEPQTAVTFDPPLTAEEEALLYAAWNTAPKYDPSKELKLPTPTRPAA

With `CC1(C)c2[nH]c3ccccc3c2CC23CN4CCCC4(CC21)C(=O)N3` (stereo not drawn) [compound 2, premalbrancheamide] the Km (MalA; [1]) was 7 µM, the kcat (MalA; [1]) was 0.0013 s⁻¹ and the Km (MalA; [2]) was 7.5 µM. It also gave a kcat (MalA; [2]) of 0.0015 s⁻¹.

In the case of `CC1(C)c2[nH]c3cc(Cl)c(Cl)cc3c2C[C@@]23CN4CCC[C@]4(C[C@@H]12)C(=O)N3` [compound 1, malbrancheamide], the “binding in MalA′ crystals” value (MalA′) is reported as “did not bind in crystals”.

For `CC1(C)c2[nH]c3ccc(Cl)cc3c2C[C@@]23CN4CCC[C@]4(C[C@@H]12)C(=O)N3` [compound 4, isomalbrancheamide B], the Km (MalA; [3]) was 4 µM and the kcat (MalA; [3]) was 0.002 s⁻¹.

In the case of `CC1(C)c2[nH]c3cc(Cl)ccc3c2C[C@@]23CN4CCC[C@]4(C[C@@H]12)C(=O)N3` [compound 3, malbrancheamide B], the Km (MalA; [3]) is reported as 4.4 µM and the kcat (MalA; [3]) is reported as 0.002 s⁻¹.
